From patent publication US4059692A, “Treating impaired consciousness with glutamyl-L-histidyl-L-prolinamide” (Takeda Chemical Industries, Ltd., priority 1975, dated 1977) come the findings set out here.

This series concerns human patient with impaired consciousness due to functional or organic damage of the brain. The series can be described thus: Clinical administration of TRH tartrate to human patients with impaired consciousness (case reports 1-8). The settings on record: for motor/behavioural recovery: 200 μg free TRH i.m. daily. The class given is in vivo. The text has this: The method of the present invention is applicable to human patients with impaired consciousness due to functional or organic damage to the brain, such as cranial trauma, brain surgery, cerebrovascular disorder, brain tumors and the like.
According to the present invention, TRH may be employed as the free base or in the form of a physiologically acceptable salt such as an acid addition salt e.g. a mineral acid salt (hydrochloride, sulphate, etc.) or an organic acid salt (acetate, tartrate, etc.). TRH tartrate is especially convenient for the administration. TRH or its salts are generally administered by the parenteral routes such as intravenous or intramuscular routes to the patients. The therapeutic dosage depends upon the route and upon the severity of impaired consciousness in each patient, and it may generally be chosen from within the range of from about 100 to about 5,000 μg. in terms of free TRH per adult human patient per day, more particularly from about 500 to about 5,000 μg. in terms of free TRH per adult human patient per day, when parenterally e.g. intravenously or intramuscularly administered. In case of those patients having swallowing capacity TRH or its salts may be orally administered. In this case, the dosage may be of course chosen from within the abovementioned range, but it may be increased over the said range, for example, up to about 150 mg. in terms of free TRH per adult human patient per day.
Child: Postoperative state of haematoma of right frontal lobe caused by cranial trauma.
Before administration, the patient was able to respond to only painful stimuli with a verbal expression of pain, otherwise being unconcious with a slight palpebral opening. Such conscious state lasted without modification for a further 10 days. The daily intramuscular injection of 292 μg. of TRH tartrate (dissolved in 0.8 ml of a sterile physiological saline; 200 μg. in terms of free TRH) successively for 10 days.
person: Postoperative state of metastatic brain tumor on right frontal and pariental lobes.
Craniotomy performed for the reduction of the intracranial pressure was followed by the gradual deterioration of consciousness. Therefore, TRH tartrate in the daily dose of 730 μg. (dissolved in 20 ml of 20% glucose; 500 μg. in terms of free TRH) was administered by intravenous drip infusion of 13 days.
Child: Brain contusion due to cranial trauma.
The child suffered from bodily contusion and loss of consciousness by collision on their bicycle with a train. At the time of hospitalization, the bilateral facilitation of the knee-jerk reflex was associated with the positive Babinski's reflex bilaterally. The daily administration of 730 μg.
Person: Post-operative state of glioblastoma.
The surgical resection of glioblastoma by cranitomy was gradually followed by a worsening of the general condition associated with impaired consciousness for 3 months.
person: Traumatic protracted coma.
The patient had been thrown from a motor bike and disturbance of consciousness had become apparent immediately after the accident. There was movement of the extremities and grimacing of the face in response to pain stimulus. The disturbance of consciousness continued thereafter and the disturbance had become fixed for 2 years prior to medication with TRH. TRH tartrate in the daily dose of 7,300 μg. (dissolved in 200 ml of electrolyte solution; 5,000 μg. in terms of free TRH) was administered by intravenous drip infusion. […] They also began to answer friends vocally with "Ah", "Ah". […] The medication was terminated at the 10th day.
person: Aneurysm of left cerebral artery.
After an attack of subarachnoid hemorrhage, it was noted that they had lost accessibility with people around them and volition, and that they had been in an abstract state. This condition had lasted for 1 month. TRH tartrate in the daily dose of 3,650 μg. […]

[1] abbreviates: Case 3, 500 μg free TRH i.v. drip daily for 10 days.

Structures can show the parent of a compound that is named as a salt.

Turning to `NC(=O)[C@@H]1CCCN1C(=O)[C@H](Cc1cnc[nH]1)NC(=O)[C@@H]1CCC(=O)N1` [TRH tartrate], the “state of consciousness (response to interview)” value (Case 1: postoperative haematoma of right frontal lobe, 292 μg TRH tartrate (200 μg free TRH) intramuscular daily for 10 days, 5th day of treatment) is given as “prompt verbal reply with a smile to the interview by the doctor”. Besides, the motor/behavioural recovery entry is, setting by setting: (Case 1, 7th day) “able to ride and sit by themself on a wheel-chair”; (Case 1, 8th day (the next day)) “able to go to a stool with support”. In addition, the “motor/behavioural recovery and conversation” value (Case 1, one day after termination of the 10-day daily administration) is “able to sit by themself on the bed and to have a conversation with others”. For the same compound, for the setting “Case 2: postoperative metastatic brain tumor, 730 μg TRH tartrate (500 μg free TRH) intravenous drip infusion daily, 13 days, 2nd day”, the conscious state result is “significant improvement of the conscious state”. The orientation ability result (Case 2, 500 μg free TRH i.v. drip daily, 2nd day) is given as “improvement of orientation ability”. The “persistence of improved conscious state” value (Case 2, after termination of the TRH treatment) is recorded as “persist for about one month after the termination of the TRH treatment”. Besides, the “Babinski's reflex” value was “sluggish appearance of Babinski's reflex” (Case 3: brain contusion, 730 μg TRH tartrate (500 μg free TRH) i.v. drip daily for 10 days, 2nd day) and “disappearance on the 3rd day” (Case 3, 500 μg free TRH i.v. drip daily, 3rd day). In addition, the impaired consciousness result under setting [1] is on record as “began to be improved from the 4th day”. Moreover, under setting [1], the impaired orientation result is “markedly improved”. Also, the final outcome (Case 3, after treatment) was “recovered without any neurological abnormality”. Where the note is “Case 3, one day after termination of the daily administration”, the motor recovery entry is recorded as “able to walk”. Where the note is “Case 4: post-operative glioblastoma, 1,460 μg TRH tartrate (1,000 μg free TRH) i.v. drip daily for 10 days”, the “palpebral opening and eyeball movement” value is “prolonged the time-length of the palpebral opening from the 4th day”. For the same compound, the consciousness result (Case 4, 1,000 μg free TRH i.v. drip daily for 10 days) was “remarkable improvement of the consciousness”. Moreover, the “response to vocal questioning” value (Case 5: traumatic protracted coma fixed for 2 years, 7,300 μg TRH tartrate (5,000 μg free TRH) i.v. drip daily, two days after start) was “began to respond with a sound to vocal questioning and turn the eyes towards the questioner”. For the same compound, the side effects entry is given as “No side effects were observed” (Case 5, 5,000 μg free TRH i.v. drip daily, 10 days treatment period); “No noteworthy side effects were observed” (Case 6, 2,500 μg free TRH i.v. drip daily for 10 days); “No side effects were noted” (Case 7, 6 mg free TRH orally daily for 2 weeks); “No side effects have been observed” (Case 8, 12 mg free TRH orally daily, during and after termination of medication). Besides, for the setting “Case 5, 5,000 μg free TRH i.v. drip daily, from about the fifth day”, the level of consciousness result is “definite improvement in the level of consciousness”. The abstract state result (Case 6: aneurysm of left cerebral artery, subarachnoid hemorrhage, 3,650 μg TRH tartrate (2,500 μg free TRH) i.v. drip daily for 10 days, third day) is “abstract state disappeared”. For the same compound, the state of consciousness result (Case 6, 2,500 μg free TRH i.v. drip daily, seventh day) is “restored close to normal”. For the same compound, the “behavior and spontaneous activity” value (Case 7: sequelae of head trauma, 8.76 mg TRH tartrate (6 mg free TRH) orally daily for 2 weeks, from the third day) was “normalization of behavior and spontaneous activity”. Moreover, the conversation with people entry (Case 7, 6 mg free TRH orally daily, after 1 week) is reported as “began to actively converse with people around them”. In addition, where the note is “Case 7, after medication was terminated at 2 weeks”, the “persistence of improvement in level of consciousness” value is reported as “improvement in the level of consciousness was retained”. Also, the “spontaneous activity / volition” value (Case 8: sequelae of head trauma, 17.52 mg TRH tartrate (12 mg free TRH) orally daily, after 2 weeks) is reported as “began to actively watch television or play the pinball machine”. For the same compound, for the setting “Case 8, 12 mg free TRH orally daily, after 2 weeks”, the agnosia and disorientation result was “little change in the agnosia and disorientation”. Further, the “condition after termination of medication” value (Case 8, medication terminated after 2 weeks, after 3 months) is on record as “no marked change in the condition of the patient”.

Consider `NC(=O)[C@@H]1CCCN1C(=O)[C@H](Cc1c[nH]cn1)NC(=O)[C@@H]1CCC(=O)N1` [TRH, L-pyroglutamyl-L-histidyl-L-prolinamide], for which, where the note is “Case 5, 5,000 μg (free TRH) per day, case had not responded to conventional treatment”, the “impaired consciousness (overall)” value is given as “significant improvement of impaired consciousness”.
